Assay results published in BindingDB's records for doi:10.7270/Q2ZW1JC6 (Nmmlsc, 2016).

molecular target: Ras-related protein Rab-2A (Canis lupus familiaris, UniProt P61105); assay: Rab2A fluorescent GTP competition potency – biochemical, pyrazoline series, Bodipy-FL-GTP, flow cytometry, multiplex, SAR follow-up (AID 2045); conditions: not given
Sequence (P61105 whole entry): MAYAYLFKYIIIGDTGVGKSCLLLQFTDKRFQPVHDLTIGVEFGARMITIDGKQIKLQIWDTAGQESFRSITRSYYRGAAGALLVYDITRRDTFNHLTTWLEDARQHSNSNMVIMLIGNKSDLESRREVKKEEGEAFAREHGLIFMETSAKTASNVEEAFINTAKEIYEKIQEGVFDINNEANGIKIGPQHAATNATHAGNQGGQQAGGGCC

EC50	SMILES
> 30 µM	Cc1onc(-c2ccccc2)c1-c1ccc(S(N)(=O)=O)cc1
> 30 µM	O=[N+]([O-])c1ccc([N+]2=N[C-](c3ccccc3)CC2c2ccccc2)cc1 (stereo unspecified)
> 30 µM	Brc1ccc(N2N=C(c3ccccc3)CC2c2ccccc2)cc1 (stereo unspecified)
> 30 µM	COc1ccccc1C1CC(c2ccccc2)=NN1c1ccccc1 (stereo unspecified)
> 30 µM	Clc1cccc(N2N=C(c3ccccc3)CC2c2ccccc2)c1 (stereo unspecified)
> 30 µM	Clc1ccc(N2N=C(c3ccccc3)CC2c2ccccc2)cc1 (stereo unspecified)
> 30 µM	CC(=O)Oc1ccc(C2=NN(c3ccccc3)C(c3ccccc3)C2)cc1 (stereo unspecified)
> 30 µM	O=C(O)c1ccc(N2N=C(c3ccccc3)CC2c2ccccc2)cc1 (stereo unspecified)
> 30 µM	COc1ccc(C2=NN(c3ccccc3)C(c3ccccc3C(F)(F)F)C2)cc1 (stereo unspecified)
> 30 µM	O=S(=O)(c1ccc(N2N=C(c3ccccc3)CC2c2ccccc2)cc1)C(F)F (stereo unspecified)
> 30 µM	CCc1ccc(C2=NN(c3ccc(S(N)(=O)=O)cc3)C(c3ccc(F)cc3)C2)cc1 (stereo unspecified)
> 30 µM	CN(C)c1ccc(C2C[C-](c3ccccc3)N=[N+]2c2ccc([N+](=O)[O-])cc2)cc1 (stereo unspecified)
> 30 µM	COc1ccc(C2CC(c3ccc(F)cc3)=NN2c2cccc(F)c2)cc1OC (stereo unspecified)
> 30 µM	COc1ccc(C2CC(c3ccccc3)=NN2c2ccc(Cl)c(C(=O)O)c2)cc1 (stereo unspecified)
> 30 µM	COc1ccc(C2CC(c3ccc(Cl)cc3)=NN2c2ccc(S(N)(=O)=O)cc2)cc1 (stereo unspecified)
> 30 µM	Cc1ccc(C2CC(c3ccccc3)=NN2c2ccc(S(N)(=O)=O)cc2)cc1 (stereo unspecified)
> 30 µM	Cc1cccc(C2CC(c3ccccc3)=NN2c2ccc(S(N)(=O)=O)cc2)c1 (stereo unspecified)
> 30 µM	COc1ccc(C2CC(c3ccccc3OC)=NN2c2ccc(S(N)(=O)=O)cc2)cc1 (stereo unspecified)
> 30 µM	COc1ccc(C2CC(c3ccc(C)cc3)=NN2c2ccc(S(N)(=O)=O)cc2)cc1 (stereo unspecified)
> 30 µM	COc1ccc(C2CC(c3cccc(C(F)(F)F)c3)=NN2c2ccc(S(N)(=O)=O)cc2)cc1 (stereo unspecified)
> 30 µM	COc1ccc(C2CC(c3cccc(N(C)C)c3)=NN2c2ccc(S(N)(=O)=O)cc2)cc1 (stereo unspecified)

EC50	SMILES
> 30 µM	COc1ccc(C2CC(c3cccnc3)=NN2c2ccc(S(N)(=O)=O)cc2)cc1 (stereo unspecified)
> 30 µM	COc1ccc(C2CC(c3ccncc3)=NN2c2ccc(S(N)(=O)=O)cc2)cc1 (stereo unspecified)
> 30 µM	Fc1ccccc1C1CC(c2ccc(Br)cc2)=NN1c1ccc(Br)cc1 (stereo unspecified) [2,5-bis(4-bromophenyl)-3-(2-fluorophenyl)-3,4-dihydropyrazole]
> 30 µM	COc1ccc(C2CC(c3ccc(F)cc3)=NN2c2cc(Cl)ccc2Cl)cc1 (stereo unspecified) [2-(2,5-dichlorophenyl)-5-(4-fluorophenyl)-3-(4-methoxyphenyl)-3,4-dihydropyrazole]
> 30 µM	COc1ccc(C2=NN(c3ccc(Cl)c(Cl)c3)C(c3ccc(OC)cc3)C2)cc1 (stereo unspecified) [2-(3,4-dichlorophenyl)-3,5-bis(4-methoxyphenyl)-3,4-dihydropyrazole]
> 30 µM	Fc1ccc(C2=NN(c3cccc(Br)c3)C(c3ccccc3)C2)cc1 (stereo unspecified) [2-(3-bromophenyl)-5-(4-fluorophenyl)-3-phenyl-3,4-dihydropyrazole]
> 30 µM	COc1ccc(C2CC(c3ccccc3)=NN2c2ccc(Cl)c(C(=O)O)c2)cc1OC (stereo unspecified) [2-chloro-5-[3-(3,4-dimethoxyphenyl)-5-phenyl-3,4-dihydropyrazol-2-yl]benzoic acid]
> 30 µM	COc1ccc(C2=NN(c3cccc(F)c3)C(c3ccc(Cl)cc3)C2)cc1 (stereo unspecified) [3-(4-chlorophenyl)-2-(3-fluorophenyl)-5-(4-methoxyphenyl)-3,4-dihydropyrazole]
> 30 µM	COc1ccc(C2C[C-](c3ccccc3)N=[N+]2c2ccc([N+](=O)[O-])cc2)cc1 (stereo unspecified) [3-(4-methoxyphenyl)-2-(4-nitrophenyl)-5-phenyl-3,4-dihydropyrazole]
> 30 µM	CN(C)c1ccc(C2CC(c3ccccc3)=NN2c2ccccc2)cc1 (stereo unspecified) [4-(2,5-diphenyl-3,4-dihydropyrazol-3-yl)-N,N-dimethylaniline]
> 30 µM	NS(=O)(=O)c1ccc(N2N=C(c3ccccc3)CC2c2ccccc2)cc1 (stereo unspecified) [4-(3,5-diphenyl-3,4-dihydropyrazol-2-yl)benzenesulfonamide]
> 30 µM	NS(=O)(=O)c1ccc(N2N=C(c3ccccc3)CC2c2ccccc2Br)cc1 (stereo unspecified) [4-[3-(2-bromophenyl)-5-phenyl-3,4-dihydropyrazol-2-yl]benzenesulfonamide]
> 30 µM	COc1ccccc1C1CC(c2ccccc2)=NN1c1ccc(S(N)(=O)=O)cc1 (stereo unspecified) [4-[3-(2-methoxyphenyl)-5-phenyl-3,4-dihydropyrazol-2-yl]benzenesulfonamide]
> 30 µM	COc1cccc(C2CC(c3ccccc3)=NN2c2ccc(S(N)(=O)=O)cc2)c1 (stereo unspecified) [4-[3-(3-methoxyphenyl)-5-phenyl-3,4-dihydropyrazol-2-yl]benzenesulfonamide]
> 30 µM	NS(=O)(=O)c1ccc(N2N=C(c3ccccc3)CC2c2ccc(Cl)cc2)cc1 (stereo unspecified) [4-[3-(4-chlorophenyl)-5-phenyl-3,4-dihydropyrazol-2-yl]benzenesulfonamide]
> 30 µM	COc1ccc(C2CC(c3ccc(C(F)(F)F)cc3)=NN2c2ccc(S(N)(=O)=O)cc2)cc1 (stereo unspecified) [4-[3-(4-methoxyphenyl)-5-[4-(trifluoromethyl)phenyl]-3,4-dihydropyrazol-2-yl]benzenesulfonamide]
> 30 µM	COc1ccc(C2CC(C)=NN2c2ccc(S(N)(=O)=O)cc2)cc1 (stereo unspecified) [4-[3-(4-methoxyphenyl)-5-methyl-3,4-dihydropyrazol-2-yl]benzenesulfonamide]
> 30 µM	COc1ccc(C2CC(c3ccsc3)=NN2c2ccc(S(N)(=O)=O)cc2)cc1 (stereo unspecified) [4-[3-(4-methoxyphenyl)-5-thiophen-3-yl-3,4-dihydropyrazol-2-yl]benzenesulfonamide]
> 30 µM	COc1ccc(C2CC(c3ccccc3Cl)=NN2c2ccc(S(N)(=O)=O)cc2)cc1 (stereo unspecified) [4-[5-(2-chlorophenyl)-3-(4-methoxyphenyl)-3,4-dihydropyrazol-2-yl]benzenesulfonamide]
> 30 µM	COc1ccc(C2CC(c3cccc(F)c3)=NN2c2ccc(S(N)(=O)=O)cc2)cc1 (stereo unspecified) [4-[5-(3-fluorophenyl)-3-(4-methoxyphenyl)-3,4-dihydropyrazol-2-yl]benzenesulfonamide]
> 30 µM	COc1ccc(C2CC(c3cccc(OC)c3)=NN2c2ccc(S(N)(=O)=O)cc2)cc1 (stereo unspecified) [4-[5-(3-methoxyphenyl)-3-(4-methoxyphenyl)-3,4-dihydropyrazol-2-yl]benzenesulfonamide]

EC50	SMILES
> 30 µM	NS(=O)(=O)c1ccc(N2N=C(c3ccc(Br)cc3)CC2c2ccc(F)cc2)cc1 (stereo unspecified) [4-[5-(4-bromophenyl)-3-(4-fluorophenyl)-3,4-dihydropyrazol-2-yl]benzenesulfonamide]
> 30 µM	COc1ccc(-c2cc(-c3ccccc3)nn2-c2ccc(S(N)(=O)=O)cc2)cc1 [4-[5-(4-methoxyphenyl)-3-phenylpyrazol-1-yl]benzenesulfonamide]
> 30 µM	COc1ccc(C2CC(C3CCCCC3)=NN2c2ccc(S(N)(=O)=O)cc2)cc1 (stereo unspecified) [4-[5-cyclohexyl-3-(4-methoxyphenyl)-3,4-dihydropyrazol-2-yl]benzenesulfonamide]
> 30 µM	O=S(=O)(c1ccc(N2N=C(c3ccc(Br)cc3)CC2c2ccccc2)cc1)C(F)F (stereo unspecified) [5-(4-bromophenyl)-2-[4-(difluoromethylsulfonyl)phenyl]-3-phenyl-3,4-dihydropyrazole]
> 30 µM	FC(F)(F)c1ccccc1C1CC(c2ccc(Br)cc2)=NN1c1ccccc1 (stereo unspecified) [5-(4-bromophenyl)-2-phenyl-3-[2-(trifluoromethyl)phenyl]-3,4-dihydropyrazole]
> 30 µM	O=[N+]([O-])c1cccc(C2C[C-](c3ccc(F)cc3)N=[N+]2c2ccccc2)c1 (stereo unspecified) [5-(4-fluorophenyl)-3-(3-nitrophenyl)-2-phenyl-3,4-dihydropyrazole]
> 30 µM	Cc1ccc(-c2cc(C(F)(F)F)nn2-c2ccc(S(N)(=O)=O)cc2)cc1 [Celecoxib]
> 30 µM	COc1ccc(C2CC(c3ccc(N(C)C)cc3)=NN2c2ccc(S(N)(=O)=O)cc2)cc1 (stereo unspecified) [KUC103422N]
> 30 µM	COc1ccc(C2CC(c3cccs3)=NN2c2ccc(S(N)(=O)=O)cc2)cc1 (stereo unspecified) [KUC103438N]
> 30 µM	NS(=O)(=O)c1ccc(N2N=C(c3ccccc3)CC2c2ccccc2Cl)cc1 (stereo unspecified) [KUC103446N]
> 30 µM	COc1ccc(C2CC(C(C)(C)C)=NN2c2ccc(S(N)(=O)=O)cc2)cc1 (stereo unspecified) [KUC103450N]
> 30 µM	COc1ccc(C2CC(c3ccccc3C(F)(F)F)=NN2c2ccc(S(N)(=O)=O)cc2)cc1 (stereo unspecified) [KUC103474N]
> 30 µM	Cc1ccccc1N1N=C(c2ccccc2)CC1c1ccc(N(C)C)cc1 (stereo unspecified) [N,N-dimethyl-4-[2-(2-methylphenyl)-5-phenyl-3,4-dihydropyrazol-3-yl]aniline]
> 30 µM	COc1ccc(C2CC(c3ccccc3)=NN2c2ccc(S(N)(=O)=O)cc2)cc1OC (stereo unspecified) [UNM-0000305823]
> 30 µM	COc1ccc(C2CC(c3ccc(Br)cc3)=NN2c2ccccc2Cl)cc1 (stereo unspecified) [UNM-0000305832]
> 30 µM	COc1ccc(C2=NN(c3ccccc3)C(c3ccc(Cl)cc3)C2)cc1 (stereo unspecified) [UNM-0000305833]
> 30 µM	O=S(=O)(O)c1ccc(N2N=C(c3ccccc3)CC2c2ccccc2)cc1 (stereo unspecified) [UNM-0000305834]
> 30 µM	Cc1cccc(N2N=C(c3ccccc3)CC2c2ccccc2)c1 (stereo unspecified) [UNM-0000305835]
> 30 µM	O=[N+]([O-])c1ccc([N+]2=N[C-](c3ccccc3)CC2c2ccc(O)cc2)cc1 (stereo unspecified) [UNM-0000305838]

same assay, conditions: inactive by the depositor's call

EC50	SMILES
0.056 µM	NS(=O)(=O)c1ccc(N2N=C(c3ccc(Cl)cc3)CC2c2ccccc2)cc1 (stereo unspecified)
1 µM	COc1ccc(C2=NN(c3cccc(F)c3)C(c3ccc(OC)cc3)C2)cc1 (stereo unspecified) [2-(3-fluorophenyl)-3,5-bis(4-methoxyphenyl)-3,4-dihydropyrazole]
0.074 µM	COc1ccc(C2CC(c3ccccc3)=NN2c2cccc(S(N)(=O)=O)c2)cc1 (stereo unspecified) [3-[3-(4-methoxyphenyl)-5-phenyl-3,4-dihydropyrazol-2-yl]benzenesulfonamide]
1.69 µM	COc1ccc(C2=NN(c3ccc(S(N)(=O)=O)cc3)C(c3ccc(OC)cc3)C2)cc1 (stereo unspecified) [4-[3,5-bis(4-methoxyphenyl)-3,4-dihydropyrazol-2-yl]benzenesulfonamide]
0.015 µM	COc1ccc(C2CC(c3ccc(F)cc3)=NN2c2ccc(S(N)(=O)=O)cc2)cc1 (stereo unspecified) [4-[5-(4-fluorophenyl)-3-(4-methoxyphenyl)-3,4-dihydropyrazol-2-yl]benzenesulfonamide]
